Measurements from patent publication US20260207605A1, “KRAS G12D INHIBITORS AND USES THEREOF” (Abbisko Therapeutics Co., Ltd., priority 2022, published 2026).
Where two headings read alike, the source gives them in different places.

Legend:
AsPC-1 = experiment: Anti-proliferative 2D CTG assay, AsPC-1; format: cell-based; conditions: Homo sapiens, ASPC1, 96 h, AsPC-1 cells, 4 days incubation, read-out: AsPC-1 cell IC50
Protocol: (§1) 1.1 Day 0 Cell Culture and Plating
(§2) Cells in a logarithmic growth phase were harvested and the cells were counted by using a […]. Cell viability was tested by using a trypan blue exclusion method to ensure that cell viability was above 90%. The cell concentration was adjusted to the desired final density, and 90 μL of cell suspension was added to a 96-well plate, then the cells were incubated overnight at 37° C., 5% CO2 and 95% humidity.
(§3) 10 μL PBS was added to each well of the TO plate containing cells. The CTG reagent was thawed and the plate was equilibrated to room temperature for 30 minutes. The CTG solution of 50 µL/well was added to each well. The cells were lysed by shaking on an orbital shaker for 5 minutes. The plate was left at room temperature for 20 minutes to stabilize the luminescence signal. The TO fluorescence signal value was read.
(§4) From the 10 mM stock solution, with a ratio of 1:5, 9-point serial dilutions were performed. The 10× medium containing the compound was transferred into corresponding wells of the 96 wells. The final maximum compound concentration was […] and the final DMSO concentration was 0.1%. The 96-well plate was placed in a 37° C. incubator and incubated for 4 days.
(§5) 50 μL/well of detection reagent (CTG) was added to the cells, and the signal was read in an Envision machine.
(§6) The percent inhibition (%) at each compound concentration was calculated from the signal in the HPE and ZPE control wells and the fluorescence signal in the individual compound wells included in each assay plate. […] The compound concentration required for inhibitory concentration at 50% (IC50) was determined using a four-parameter logarithmic dose-response equation by testing the concentration of the compound and the inhibition percentage value. The endpoint value (IC50) of the reference compound was assessed in each experiment as a quality control measure. If the endpoint value is within three times the expected value, the experiment may be considered acceptable.

AGS = experiment: Anti-proliferative 2D CTG assay, AGS; format: cell-based; conditions: AGS cells, 4 days incubation, read-out: AGS cell IC50
Protocol: as §1, §2, §3, §4, §5, §6

KRAS^G12D/cRAF = KRAS^G12D/cRAF (Homo sapiens, UniProt P01116, G12D); experiment: KRAS G12D/cRAF binding test (Alphalisa); conditions: His-tagged KRAS G12D with GMPPNP, GST-tagged cRAF
Protocol: The compound was dissolved in 100% DMSO at a starting concentration of 5 mM and diluted in DMSO with a 3-fold serial dilution method for a total of 8 concentration points. 1 μL of the compound or DMSO at each concentration point was added into 99 μL of the experimental buffer to obtain 10× stock solution.
The ratio for each compound concentration was calculated from the signal of the DMSO control group contained in each assay plate and the Alphalisa signal in each compound well. The compound concentration required for inhibitory concentration at 50% (IC50) was determined using a four-parameter logarithmic dose-response equation by testing the concentration of the compound and the value of the ratio. The endpoint value (IC50) of the reference compound was assessed in each experiment as a quality control measure. If the endpoint value is within three times the expected value, the experiment may be considered acceptable.

Sequence of KRAS^G12D/cRAF (P01116 1-188 isoform P01116-2 G12D): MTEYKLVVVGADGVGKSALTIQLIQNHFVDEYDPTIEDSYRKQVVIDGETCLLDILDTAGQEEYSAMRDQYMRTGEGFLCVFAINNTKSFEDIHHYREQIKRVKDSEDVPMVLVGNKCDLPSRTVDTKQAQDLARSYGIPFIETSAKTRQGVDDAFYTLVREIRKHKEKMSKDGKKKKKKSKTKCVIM

SMILES	IC50 (AsPC-1) [nM]	IC50 (AGS; Homo sapiens, AGS, 96 h) [nM]	IC50 (KRAS^G12D/cRAF) [nM]	IC50 (AGS) [nM]
C#Cc1c(F)ccc2cc(O)cc(-c3ncc4c(N5C[C@@H]6CC[C@](CC)(C5)N6)nc(OC[C@@]56CCCN5CC(=C)C6)nc4c3F)c12 [Example 20, 4-(4-((1R,5S)-1-ethyl-3,8-diazabicyclo[3.2.1]octan-3-yl)-8-fluoro-2-(((S)-2-methylenetetrahydro-1H-pyrrolizin-7a(5H)-yl)methoxy)pyrido[4,3-d]pyrimidin-7-yl)-5-ethynyl-6-fluoronaphthalen-2-ol]	17.2	3.1	3	
C#Cc1c(F)ccc2cc(O)cc(-c3ncc4c(N5C[C@@H]6CC[C@](COC)(C5)N6)nc(OC[C@@]56CCCN5CC(=C)C6)nc4c3F)c12 [Example 22, 5-ethynyl-6-fluoro-4-(8-fluoro-4-((1R,5S)-1-(methoxymethyl)-3,8-diazabicyclo[3.2.1]octan-3-yl)-2-(((S)-2-methylenetetrahydro-1H-pyrrolizin-7a(5H)-yl)methoxy)pyrido[4,3-d]pyrimidin-7-yl)naphthalen-2-ol]	14.3	21.7	2.9	
C#Cc1c(F)ccc2cc(O)cc(-c3ncc4c(N5C[C@@H]6CC[C@](C7CC7)(C5)N6)nc(OC[C@@]56CCCN5CC(=C)C6)nc4c3F)c12 [Example 29, 4-(4-((1S,5S)-1-cyclopropyl-3,8-diazabicyclo[3.2.1]octan-3-yl)-8-fluoro-2-(((S)-2-methylenetetrahydro-1H-pyrrolizin-7a(5H)-yl)methoxy)pyrido[4,3-d]pyrimidin-7-yl)-5-ethynyl-6-fluoronaphthalen-2-ol]	102	21	25	
C#Cc1c(F)ccc2cc(O)cc(-c3ncc4c(N5C[C@@H]6CC[C@](CC)(C5)N6)nc(OC[C@@]56CCCN5C/C(=C\F)C6)nc4c3F)c12 [Example 55, 4-(4-((1R,5S)-1-ethyl-3,8-diazabicyclo[3.2.1]octan-3-yl)-8-fluoro-2-(((Z)-2-(fluoromethylene)tetrahydro-1H-pyrrolizin-7a (5H)-yl)methoxy)pyrido[4,3-d]pyrimidin-7-yl)-5-ethynyl-6-fl uoronaphthalen-2-ol]	16.3		3	1.3
C#Cc1c(F)ccc2cc(O)cc(-c3ncc4c(N5C[C@@H]6CC[C@](COC)(C5)N6)nc(OC[C@@]56CCCN5C/C(=C\F)C6)nc4c3F)c12 [Example 58, 5-ethynyl-6-fluoro-4-(8-fluoro-2-(((Z)-2-(fluoromethylene)tetrahydro-1H-pyrrolizin-7a(5H)-yl)methoxy)-4-((1R,5S)-1-(methoxymethyl)-3,8-diazabicyclo [3.2.1]octan-3-yl)pyrido[4,3-d]pyrimidin-7-yl)naphthalen-2-ol]	21.8	1.7	6	
[2H]C([2H])([2H])OC[C@@]12CC[C@@H](CN(c3nc(OC[C@@]45CCCN4C/C(=C\F)C5)nc4c(F)c(-c5cc(O)cc6ccc(F)c(C#C)c56)ncc34)C1)N2 [Example 61, 5-ethynyl-6-fluoro-4-(8-fluoro-2-(((Z)-2-(fluoromethylene)tetrahydro-1H-pyrrolizin-7a(5H)-yl)methoxy)-4-((1R,5S)-1-((methoxy-d3)methyl)-3,8-diazabicyclo[3.2.1]octan-3-yl)pyrido[4,3-d]pyrimidin-7-yl)naphthalen-2-ol]	37.9		2.5	3.4
C#Cc1c(F)ccc2cc(O)cc(-c3ncc4c(N5C[C@@H]6CC[C@](CC)(C5)N6)nc(OC[C@@]56CCCN5C/C(=C/F)C6)nc4c3F)c12 [Example 80, 4-(4-((1R,5S)-1-ethyl-3,8-diazabicyclo[3.2.1]octan-3-yl)-8-fluoro-2-(((S,E)-2-(fluoromethylene)tetrahydro-1H-pyrrolizin-7a (5H)-yl)methoxy)pyrido[4,3-d]pyrimidin-7-yl)-5-ethynyl-6-fluoronaphthalen-2-ol]	39.6	5.8	6.2	
